# In BindingDB's records for doi:10.1021/jm100886h (University of Copenhagen, 2010):
# Assay: Antagonist activity at GluR1 expressed in Xenopus laevis oocytes assessed as inhibition of glutamate-induced current at -60mV holding potential by two-electrode voltage-clamp electrophysiology
row,Compound,IC50 [nM]
1,NCCCNCCCCNCCCNC(=O)[C@H](CC1CCCCC1)NC(=O)C1CCCCC1 [(S)-N-(1-(3-(4-(3-aminopropylamino)butylamino)propylamino)-3-cyclohexyl-1-oxopropan-2-yl)cyclohexanecarboxamide],21
2,NCCCNCCCCNCCCNC(=O)[C@H](CC1CCCCC1)NC(=O)Cc1cccc2ccccc12 [(S)-N-(3-(4-(3-aminopropylamino)butylamino)propyl)-3-cyclohexyl-2-(2-(naphthalen-1-yl)acetamido)propanamide],41
3,CCCC(=O)N[C@@H](CC1CCCCC1)C(=O)NCCCNCCCCNCCCN [(S)-N-(1-(3-(4-(3-aminopropylamino)butylamino)propylamino)-3-cyclohexyl-1-oxopropan-2-yl)butyramide],32
4,NCCCNCCCCNCCCNC(=O)[C@H](CC1CCCCC1)NC(=O)c1ccc(-c2ccccc2)cc1 [(S)-N-(1-(3-(4-(3-aminopropylamino)butylamino)propylamino)-3-cyclohexyl-1-oxopropan-2-yl)biphenyl-4-carboxamide],87
5,NCCCNCCCCNCCCNC(=O)[C@H](CC1CCCCC1)NC(=O)CC12CC3CC(CC(C3)C1)C2 [(S)-2-(2-Adamantan-1-yl-acetylamino)-N-{3-[4-(3-amino-propylamino)-butylamino]-propyl}-3-cyclohexyl-propionamide],105
